Data published in patent publication US20250361248A1, “PROTAC COMPOUND WITH CYCLOPHILIN A DEGRADATION ACTIVITY, PREPARATION METHOD THEREFOR, AND USE THEREOF” (priority 2022, published 2025).

Columns and labels:
[1] = system: rheumatoid arthritis; experiment: Rat rheumatoid arthritis model (Freund complete adjuvant); type: in vivo, Lewise rats; details: 10 mg/kg tail vein three times/week
Experimental: The BCG vaccine was inactivated in a water bath at 80° C. for 1 h, ground thoroughly with incomplete Freund adjuvant, and mixed well to prepare 15 mg/mL Freund complete adjuvant (FCA). Lewise rats were divided into 4 groups: blank group (PBS), untreated group (UT), treatment group 1 (compound), and treatment group 2 (MTX (methotrexate)), with 5 rats in each group and a body weight of […]. Except for the PBS group, rats were intradermally injected with 0.1 mL of FCA in the right hind paw. On day 14 after injection, rats in treatment group 1 (compound) were injected with the compound (10 mg/kg of body weight, dissolved in 100 μL of PBS) through the tail vein three times/week: rats in treatment group 2 (MTX (methotrexate)) were intraperitoneally injected with methotrexate (1.2 mg/kg of body weight) three times/week.
The circumference of the metatarsophalangeal joint was measured. The circumference of the ankle joint of the left hind paw (on the secondary lesion side) of all rats was measured once before modeling, before administration, and 3 weeks after administration, respectively, and the percentage of joint swelling was calculated.
The joint index was determined by joint swelling score before administration (Day 0) and 3 weeks after administration. Scoring was carried out based on the redness and swelling degree of the ankle and toe joints of the front and rear limbs of rats and the affected joint index, as follows: 0 for normal; 1 for the redness and swelling of one joint; 2 for the redness and swelling of two or more joints; 3 for severe redness and swelling of the paw below the ankle joint; 4 for the redness and swelling of the entire paw including the ankle joint and inability to bear weight. The limbs were scored separately; and the cumulative sum of the scores was the joint index.
(1) On the day 21 of administration, rats were euthanized after blood collection. […]
(2) Joint synovial proliferation and the degree of sub-synovial inflammation were observed under a light microscope, and synovial cell proliferation was scored.

[2] = system: A549 cells; experiment: Migration and infiltration of lung cancer cells, Transwell chambers; type: cell-based
Experimental: (§1) (1) A549 cells in the logarithmic phase were collected, the concentration of the cell suspension was adjusted, and 100 uL was added per well. The cells to be tested were plated to a density of 10^3 to 10^4 cells/well and incubated at 37° C. under 5% CO2 until the bottom of the wells was covered by a single layer of cells.
(2) Different concentrations of the compound represented by Formula I were added: 0, 10, 10^2, 10^3, 10^4, and 10^5 nM/well, with 3 replicate wells set, and incubated at 37° C. under 5% CO2 for 12 hours.
The upper chamber of a 24-well cell culture insert ([…] pore size) was coated (no migration) or (invasive) with a matrix (1 mg/mL) and dried at 37° C. for 30 min.
(3) A549/WT and A549/CypA-cells were trypsinized, washed, and suspended in serum-free DMEM after treatment with 20 ng/ml TGF-β for 48 h.
(1) DMEM containing 10% fetal bovine serum was added to the lower chamber per approximately 5×10^4 cells inserted in the upper chamber.
(2) After incubation for 6 h (migration) or 24 h (invasion), non-migrating or […] cells residing on the upper part of the insert membrane were removed with a cotton swab.
(3) The cells that migrated to the underside of the membrane were fixed and stained with 2% crystal violet in ethanol.
(4) The stained cells were observed and counted under a Japan Olympus CKX41 microscope.

[3] = biological target: CypA (Mus musculus, UniProt P17742); type: in vivo, C57BL/6 mice; details: 10 mg/kg of body weight/day from 24 h after IBV infection, 7 days after infection
Chain of CypA (Mus musculus, UniProt P17742) (P17742 whole entry): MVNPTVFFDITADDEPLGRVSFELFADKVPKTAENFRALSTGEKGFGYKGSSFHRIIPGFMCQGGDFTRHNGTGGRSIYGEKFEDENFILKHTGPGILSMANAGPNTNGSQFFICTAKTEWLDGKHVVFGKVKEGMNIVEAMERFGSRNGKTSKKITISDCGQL

[4] = system: IBV-/Guangxi-Jiangzhou/1352/2018; experiment: IBV-induced pneumonia mouse model: lung index, lung pathology and pathological scores; set-up: species or system C57BL/6 mice; details: in vivo
[5] = system: A549 cells; experiment: Effect on A549 cell activity by CCK-8 method; type: cell-based; details: 0 to 10^5 nM, 12 hours
Experimental: as §1, with “10^3-10^4” for “10^3 to 10^4”
(2) Different concentrations of the compound of Formula (I) were added: 0, 10, 10^2, 10^3, 10^4, and 10^5 nM/well, with 3 replicate wells set, and incubated at 37° C. under 5% CO2 for 12 hours.
• (1) 10 μL CCK8 reagent was added to the above cells in each well and reacted for 2 h. • (2) The incubation was terminated, and the culture medium in the wells was carefully aspirated. • (3) The absorbance of each well was measured using a microplate reader with a wavelength of 450 nm. • (4) The absorbance ratio between the experimental group and the control group was calculated as follows: Cell viability=(Absorbance of the experimental group−Blank control)÷(Absorbance of the control group−Blank control)×100%.

[6] = biological target: T1, CypA (Homo sapiens, UniProt P62937); experiment: CypA degradation in A549 cells by Western Blot; type: cell-based; details: A549 cell line, 12 hours
T1 construct: A549 cells in the logarithmic phase were collected; endogenous in cells; host or cells: A549
T1 sequence (P62937 whole entry): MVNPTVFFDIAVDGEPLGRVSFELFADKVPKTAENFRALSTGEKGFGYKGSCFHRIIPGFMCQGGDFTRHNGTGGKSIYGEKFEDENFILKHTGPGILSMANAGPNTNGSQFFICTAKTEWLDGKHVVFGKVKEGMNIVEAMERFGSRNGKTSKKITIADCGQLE
Experimental: as §1, with “10^3-10^4” for “10^3 to 10^4”
(2) Different concentrations of the compound of Formula I were added: 0, 10, 10^2, 10^3, 10^4, and 10^5 nM/well, with 3 replicate wells set, and incubated at 37° C. under 5% CO2 for 12 hours.
(1) The treated cells were scraped off from the culture medium, suspended thoroughly, and then collected by centrifugation at 300 g for 5 minutes. After washing with PBS once, the PBS was discarded. […]
(3) The specific steps for Western Blot (WB) detection were as follows: • 1) An appropriate concentration of SDS-PAGE gel was prepared: the concentration of a separating gel of 10% and the concentration of a stacking gel of 5%. • 2) Sample preparation: protein samples were prepared according to experimental requirements, centrifuged, mixed well, and loaded into the loading wells of SDS-PAGE gel. The loading volume was adjusted appropriately according to the protein quantification results. • 3) Electrophoresis: the power was turned on, and the protein samples were run at 80 volts in the stacking gel. […]

[7] = system: IL-1β, IL-6, TNF-α, and IFN-γ; set-up: species or system C57BL/6 mice; details: mouse, in vivo, 10 mg/kg/day

Cc1ncsc1-c1ccc(CNC(=O)[C@@H]2C[C@@H](O[Si](C)(C)C(C)(C)C)CN2C(=O)[C@@H](NC(=O)COCCCCOCCCCOc2cccc(O)c2C(=O)NC(=O)NC2CCCCC2)C(C)(C)C)cc1 [Formula I]
joint index of the ankle joint ([1]; 3 weeks after administration): reduce the joint index
joint swelling ([1]; 3 weeks after administration): significantly relieve joint swelling
inflammation of the ankle joint (ankle pathological scores, HE) ([1]; day 21 of administration): alleviate the inflammation
infiltration of lung cancer cells ([2]; A549, Transwell with matrix, 24 h): significantly reduce
migration of lung cancer cells ([2]; A549, Transwell, 6 h): significantly reduce
expression of CypA in mouse lung tissue [3]: significantly reduce
lung injury (lung index, pathology, pathological scores) [4]: significantly alleviate lung injury
cell viability [5]: above 80%
DC50 ([6]; WB grayscale analysis, read-out: half-degradation concentration on CypA): < 100 nM
degradation effect on CypA protein ([6]; WB, 0 to 10^5 nM): could be clearly observed
expression of IFN-γ in the lung tissue [7]: significantly reduce
expression of IL-1β in the lung tissue [7]: significantly reduce
expression of IL-6 in the lung tissue [7]: significantly reduce
expression of TNF-α in the lung tissue [7]: significantly reduce
